# Laboratory results taken from ChEMBL document CHEMBL5528012, “Discovery of novel deoxyvasicinone derivatives with benzenesulfonamide substituents as multifunctional agents against Alzheimer's disease” (Eur J Med Chem, 2024).
# What was measured:
# [1] = molecular target: T1, Acetylcholinesterase (Electrophorus electricus, UniProt O42275); assay: Inhibition of electric eel AChE using acetylthiocholine iodide as substrate pre-incubated for 30 mins followed by substrate addition and measured after 5 mins by DTNB reagent based Ellman's method
# T1 sequence (O42275 whole entry): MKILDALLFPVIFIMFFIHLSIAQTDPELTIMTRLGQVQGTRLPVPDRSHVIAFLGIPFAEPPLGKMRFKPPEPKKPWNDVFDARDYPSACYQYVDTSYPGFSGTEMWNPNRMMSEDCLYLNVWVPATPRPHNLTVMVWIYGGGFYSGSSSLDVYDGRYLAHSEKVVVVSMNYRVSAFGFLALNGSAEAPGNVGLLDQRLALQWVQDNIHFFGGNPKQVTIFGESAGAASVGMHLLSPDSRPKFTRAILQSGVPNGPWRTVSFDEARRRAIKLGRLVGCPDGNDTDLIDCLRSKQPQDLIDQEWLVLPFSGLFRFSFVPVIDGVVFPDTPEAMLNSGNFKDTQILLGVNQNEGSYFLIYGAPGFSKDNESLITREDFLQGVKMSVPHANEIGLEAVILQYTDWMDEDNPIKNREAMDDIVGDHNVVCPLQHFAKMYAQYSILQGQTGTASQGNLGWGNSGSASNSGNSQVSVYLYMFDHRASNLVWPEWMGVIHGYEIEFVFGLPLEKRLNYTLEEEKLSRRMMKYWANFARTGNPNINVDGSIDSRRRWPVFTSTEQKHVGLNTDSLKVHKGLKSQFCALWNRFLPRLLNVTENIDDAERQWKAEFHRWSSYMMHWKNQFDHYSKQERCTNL
# [2] = molecular target: Cholinesterase (Equus caballus, UniProt P81908); assay: Inhibition of equine serum BuChE using S-butyrylthiocholine iodide as substrate pre-incubated for 30 mins followed by substrate addition and measured after 5 mins by DTNB reagent based Ellman's method
# Sequence of Cholinesterase (P81908 whole entry): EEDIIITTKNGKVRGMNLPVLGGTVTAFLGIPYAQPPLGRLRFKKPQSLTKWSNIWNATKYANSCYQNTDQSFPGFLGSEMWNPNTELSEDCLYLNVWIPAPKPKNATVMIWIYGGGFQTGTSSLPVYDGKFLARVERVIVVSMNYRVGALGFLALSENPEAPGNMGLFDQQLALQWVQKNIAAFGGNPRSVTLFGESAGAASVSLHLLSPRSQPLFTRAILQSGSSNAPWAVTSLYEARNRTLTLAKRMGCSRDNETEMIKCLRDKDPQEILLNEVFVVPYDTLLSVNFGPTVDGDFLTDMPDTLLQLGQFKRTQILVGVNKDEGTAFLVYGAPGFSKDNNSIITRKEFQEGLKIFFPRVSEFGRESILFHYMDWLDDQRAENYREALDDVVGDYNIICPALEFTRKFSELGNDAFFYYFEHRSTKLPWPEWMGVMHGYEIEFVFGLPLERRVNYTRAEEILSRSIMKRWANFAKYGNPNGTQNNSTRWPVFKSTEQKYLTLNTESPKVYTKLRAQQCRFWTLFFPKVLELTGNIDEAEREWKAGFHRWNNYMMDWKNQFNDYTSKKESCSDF
# [3] = in vitro; conditions: PAMPA, pH 7.4
# Description: Permeability of the compound at 30 to 50 uM at pH 7.4 by PAMPA-BBB assay
# [4] = molecular target: Acetylcholinesterase (Homo sapiens, UniProt P22303); assay: Inhibition of AChE (unknown origin)
# Sequence of Acetylcholinesterase (Homo sapiens, UniProt P22303) (P22303 whole entry): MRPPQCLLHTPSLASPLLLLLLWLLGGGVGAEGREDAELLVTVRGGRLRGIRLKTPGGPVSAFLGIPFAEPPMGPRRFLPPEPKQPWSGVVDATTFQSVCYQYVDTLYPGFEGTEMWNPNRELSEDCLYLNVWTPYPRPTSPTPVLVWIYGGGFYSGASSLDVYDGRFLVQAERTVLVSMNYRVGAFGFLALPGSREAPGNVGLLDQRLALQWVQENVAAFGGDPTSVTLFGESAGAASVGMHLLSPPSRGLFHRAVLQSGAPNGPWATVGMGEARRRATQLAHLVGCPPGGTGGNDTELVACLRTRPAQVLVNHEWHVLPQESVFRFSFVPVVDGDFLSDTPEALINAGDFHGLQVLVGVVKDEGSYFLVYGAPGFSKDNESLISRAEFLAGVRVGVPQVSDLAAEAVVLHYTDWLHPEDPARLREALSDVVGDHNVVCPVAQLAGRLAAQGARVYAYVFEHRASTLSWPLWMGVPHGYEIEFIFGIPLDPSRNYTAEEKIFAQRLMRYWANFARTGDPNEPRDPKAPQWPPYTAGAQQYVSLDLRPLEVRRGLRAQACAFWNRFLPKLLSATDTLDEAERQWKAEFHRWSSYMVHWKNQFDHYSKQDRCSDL
# [5] = Hepatotoxicity in mouse AML12 cells assessed as reduction in cell viability at 20 to 100 uM incubated for 24 hrs by MTT assay; assay type: toxicity, cell-based; conditions: aml12, 24 h, dose 20-100 µM
# [6] = molecular target: T1, Acetylcholinesterase; assay: Inhibition of electric eel AChE
# [7] = Hepatotoxicity in human HepG2 cells assessed as reduction in cell viability at 20 to 100 uM incubated for 24 hrs by MTT assay; assay type: toxicity, cell-based; conditions: hepg2, 24 h, dose 20-100 µM
Structure (SMILES),IC50 [1],IC50 [2],further results
O=C(CNS(=O)(=O)c1c(Cl)cccc1Cl)Nc1ccc2c(=O)n3c(nc2c1)CCC3,4.06 µM,47.7 µM,–
CC(C)c1ccc(S(=O)(=O)NCC(=O)Nc2ccc3c(=O)n4c(nc3c2)CCC4)cc1,12.5 µM,> 50 µM,–
O=C(CNS(=O)(=O)c1cc(Br)cc(C(F)(F)F)c1)Nc1ccc2c(=O)n3c(nc2c1)CCC3,> 50 µM,> 50 µM,–
NS(=O)(=O)c1cc2c(cc1Cl)N=CNS2(=O)=O [CHLOROTHIAZIDE],–,–,Papp at 50 µM [3]: 1.36 ×10⁻⁶ cm/s
Cc1ccc(S(=O)(=O)NCC(=O)Nc2ccc3c(=O)n4c(nc3c2)CCC4)cc1,17.6 µM,> 50 µM,–
O=C(CNS(=O)(=O)c1cccc(F)c1)Nc1ccc2c(=O)n3c(nc2c1)CCC3,4.43 µM,> 50 µM,–
O=C(CCCCN1CCN(Cc2ccccc2)CC1)Nc1ccc2nc3n(c(=O)c2c1)CCC3,–,–,IC50 [4]: 0.00329 µM
CCc1ccc(S(=O)(=O)NCC(=O)Nc2ccc3c(=O)n4c(nc3c2)CCC4)cc1,31.7 µM,> 50 µM,–
O=C(CNS(=O)(=O)c1cccc(Cl)c1)Nc1ccc2c(=O)n3c(nc2c1)CCC3,3.98 µM,> 50 µM,–
O=c1c2ccccc2nc2n1CCC2 [DEOXYVASICINONE],–,–,Activity [5]: Non-Toxic; IC50 [6]: 82.5 µM; Activity [7]: Non-Toxic
O=C(CNS(=O)(=O)c1cc(Cl)cc(Cl)c1)Nc1ccc2c(=O)n3c(nc2c1)CCC3,> 50 µM,> 50 µM,–
COc1ccc(S(=O)(=O)NCC(=O)Nc2ccc3c(=O)n4c(nc3c2)CCC4)cc1OC,10.4 µM,> 50 µM,–
COc1ccc2[nH]c(C(=O)Nc3ccc4nc5n(c(=O)c4c3)CCC5)cc2c1,–,–,IC50 [4]: 0.12 µM
O=C(CNS(=O)(=O)c1ccccc1)Nc1ccc2c(=O)n3c(nc2c1)CCC3,5.39 µM,48.5 µM,–
CC(C)(C)c1ccc(S(=O)(=O)NCC(=O)Nc2ccc3c(=O)n4c(nc3c2)CCC4)cc1,> 50 µM,> 50 µM,–
CCCc1ccc(S(=O)(=O)NCC(=O)Nc2ccc3c(=O)n4c(nc3c2)CCC4)cc1,> 50 µM,> 50 µM,–
O=C(CNS(=O)(=O)c1c(F)cccc1F)Nc1ccc2c(=O)n3c(nc2c1)CCC3,5.12 µM,> 50 µM,–
O=C(CNS(=O)(=O)c1ccc(OC(F)(F)F)cc1)Nc1ccc2c(=O)n3c(nc2c1)CCC3,> 50 µM,> 50 µM,–
COc1ccc(Br)cc1S(=O)(=O)NCC(=O)Nc1ccc2c(=O)n3c(nc2c1)CCC3,5.22 µM,> 50 µM,–
